Source: patent publication US8168592B2 (Amgen Inc., priority 2005, dated 2012)
Like-named read-outs stand apart in the source and are kept apart here. One block for each molecule: values may come before it. Bridge positions count the residues as written; N and C are the ends. Square brackets hold non-standard residues; d marks the D form. Peptide text beside a SMILES is read from it. hArg = N=C(N)NCCCC[C@H](N)C(=O)O; Cit = NC(=O)NCCC[C@H](N)C(=O)O; Aze = O=C(O)[C@@H]1CCN1

Target: T1, CGRP1 receptor (Homo sapiens, UniProt O60894+Q16602)
T1 construct: SK-N-MC cells express CRLR and RAMP1, which form CGRP1 receptor; endogenous in cells; host or cells: SK-N-MC human neuroblastoma cells
T1 sequence (Q16602 23-461): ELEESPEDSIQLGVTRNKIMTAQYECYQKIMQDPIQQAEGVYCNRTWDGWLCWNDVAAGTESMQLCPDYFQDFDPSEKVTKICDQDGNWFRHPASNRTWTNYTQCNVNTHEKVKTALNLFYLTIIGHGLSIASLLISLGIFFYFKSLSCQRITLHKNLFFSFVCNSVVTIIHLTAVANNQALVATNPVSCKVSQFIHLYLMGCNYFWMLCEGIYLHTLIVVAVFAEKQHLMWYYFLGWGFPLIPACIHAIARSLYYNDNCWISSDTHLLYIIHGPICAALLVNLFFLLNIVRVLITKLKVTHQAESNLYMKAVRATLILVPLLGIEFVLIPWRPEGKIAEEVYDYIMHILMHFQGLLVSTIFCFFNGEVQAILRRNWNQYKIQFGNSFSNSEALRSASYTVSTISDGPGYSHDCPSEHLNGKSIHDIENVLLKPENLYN
T1 sequence (O60894 27-148): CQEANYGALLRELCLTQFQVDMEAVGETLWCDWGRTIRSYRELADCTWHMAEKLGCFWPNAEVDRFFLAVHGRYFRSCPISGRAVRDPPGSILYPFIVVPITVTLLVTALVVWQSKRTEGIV
Experiment: in vitro CGRP1 receptor mediated cAMP assay in SK-N-MC cells
Format: cell-based
In short: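 Intracellular cAMP served as the Gs-coupled CGRP1 readout in endogenously expressing SK-N-MC cells. After a 15-minute room-temperature step in plasma-free medium, cell lysates (30 minutes, 37° C) went into a competitive ELISA with a cAMP-AP conjugate and anti-cAMP antibody for 1 hour, then a 30-minute substrate enhancer step before reading.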

[1] = Table 2C, unconjugated peptide, read-out: Peptide IC50

IC50 [1]: 3.45 nM
Molecule: CC(=O)N[C@@H](Cc1c[nH]c2ccccc12)C(=O)N[C@H](C(=O)N[C@H]1CCC(=O)NCCCC[C@@H](C(=O)NCC(=O)N[C@@H](CC(C)C)C(=O)N[C@@H](CC(C)C)C(=O)N[C@@H](CO)C(=O)N[C@@H](CCCNC(N)=O)C(=O)N[C@@H](CO)C(=O)NCC(=O)N2CC[C@H]2C(=O)N[C@H](C(=O)N[C@H](C(=O)N[C@@H](CCCCNC(=N)N)C(=O)N[C@@H](CCCCN)C(=O)N[C@@H](CC(N)=O)C(=O)N[C@@H](Cc2ccccc2)C(=O)N[C@H](C(=O)N2CCC[C@H]2C(=O)N[C@H](C(=O)N[C@@H](CC(=O)O)C(=O)N[C@H](C(=O)NCC(=O)N2CCC[C@H]2C(=O)N[C@@H](Cc2ccccc2)C(=O)N[C@@H](C)C(=O)N[C@@H](Cc2ccccc2)C(N)=O)C(C)C)[C@@H](C)O)C(C)C)C(C)C)C(C)C)NC(=O)[C@H](CC(C)C)NC(=O)[C@H](CCCCNC(=N)N)NC(=O)[C@H](Cc2c[nH]cn2)NC1=O)C(C)C [compound 909] (Ac-WVEH[hArg]LKGLLS[Cit]SG[Aze]VV[hArg]KNFVPTDVGPFAF-NH2; lactam 3-7)

IC50 (Table 2D, read-out: IC50): 2.75 nM
Molecule: Ac-WVTHRLAGLLSASGGVVRCNFVPTDVGPFAF-NH2 [compound 772]

IC50 [1]: 0.57 nM
Molecule: CC(=O)N[C@@H](Cc1c[nH]c2ccccc12)C(=O)N[C@H](C(=O)N[C@H](C(=O)N[C@@H](Cc1cnc[nH]1)C(=O)N[C@@H](CCCNC(N)=O)C(=O)N[C@@H](CC(C)C)C(=O)N[C@@H](C)C(=O)NCC(=O)N[C@@H](CC(C)C)C(=O)N[C@@H](CC(C)C)C(=O)N[C@@H](CO)C(=O)N[C@@H](CCCN=C(N)N)C(=O)N[C@@H](CO)C(=O)NCC(=O)NCC(=O)N[C@H](C(=O)N[C@H](C(=O)N[C@@H](CCCN=C(N)N)C(=O)N[C@@H](CCCCN)C(=O)N[C@@H](CC(N)=O)C(=O)N[C@@H](Cc1ccccc1)C(=O)N[C@H](C(=O)N1CCC[C@H]1C(=O)N[C@H](C(=O)N[C@@H](CC(=O)O)C(=O)N[C@H](C(=O)NCC(=O)N1CCC[C@H]1C(=O)N[C@@H](Cc1ccccc1)C(=O)N[C@@H](C)C(=O)N[C@@H](Cc1ccccc1)C(N)=O)C(C)C)[C@@H](C)O)C(C)C)C(C)C)C(C)C)[C@@H](C)O)C(C)C [compound 861]

Further lines, the molecule ahead of its results:

Molecule: SEQ ID NO:5 (Ac-WVTHRLAGLLSRSGGVVKNNFVPTDVGPFAF-NH2)
improved potency relative to native CGRP(8-37) (SEQ ID NO:1) (cAMP assay): greater than 35 fold

Molecule: CC(=O)N[C@@H](Cc1c[nH]c2ccccc12)C(=O)N[C@H](C(=O)N[C@H]1CCC(=O)NCCCC[C@@H](C(=O)NCC(=O)N[C@@H](CC(C)C)C(=O)N[C@@H](CC(C)C)C(=O)N[C@@H](CO)C(=O)N[C@@H](CCCNC(N)=O)C(=O)N[C@@H](CO)C(=O)NCC(=O)NCC(=O)N[C@H](C(=O)N[C@H](C(=O)N[C@@H](CCCNC(=N)N)C(=O)N[C@@H](CCCCN)C(=O)N[C@@H](CC(N)=O)C(=O)N[C@@H](Cc2ccccc2)C(=O)N[C@H](C(=O)N2CCC[C@H]2C(=O)N[C@H](C(=O)N[C@@H](CC(=O)O)C(=O)N[C@H](C(=O)NCC(=O)N2CCC[C@H]2C(=O)N[C@@H](Cc2ccccc2)C(=O)N[C@@H](C)C(=O)N[C@@H](Cc2ccccc2)C(N)=O)C(C)C)[C@@H](C)O)C(C)C)C(C)C)C(C)C)NC(=O)[C@H](CC(C)C)NC(=O)[C@H](CCCNC(=N)N)NC(=O)[C@H](Cc2c[nH]cn2)NC1=O)C(C)C [compound 893] (Ac-WVEHRLKGLLS[Cit]SGGVVRKNFVPTDVGPFAF-NH2; lactam 3-7)
IC50 (Peptide IC50, Table 2C, unconjugated peptide): 1.64 nM
